Measured values: ChEMBL document CHEMBL1151757, “Synthesis, radiosynthesis, and biological evaluation of fluorine-18-labeled 2beta-carbo(fluoroalkoxy)-3beta-(3'-((Z)-2-haloethenyl)phenyl)nortropanes: candidate radioligands for in vivo imaging of the serotonin transporter with positron emission tomography” (J Med Chem, 2008)

Experiments:
[1] = Ratio of drug uptake in medulla to cerebellum in anesthetized cynomolgus monkey after 35 mins postinjection; format: ADME, organism-based, Macaca fascicularis; settings: in vivo
[2] = Drug uptake in anesthetized cynomolgus monkey brain frontal lobe after 2.5 mins postinjection; format: ADME, organism-based, Macaca fascicularis; settings: in vivo
[3] = Drug uptake in anesthetized cynomolgus monkey brain frontal lobe after 27.5 mins postinjection; format: ADME, organism-based, Macaca fascicularis; settings: in vivo
[4] = Drug uptake in anesthetized cynomolgus monkey brain frontal lobe after 45 mins postinjection; format: ADME, organism-based, Macaca fascicularis; settings: in vivo, 0.75 h
[5] = Drug uptake in anesthetized cynomolgus monkey brain frontal lobe after 225 mins postinjection; format: ADME, organism-based, Macaca fascicularis; settings: in vivo, 3.75 h
[6] = Ratio of drug uptake in midbrain to cerebellum in anesthetized cynomolgus monkey after 235 mins postinjection; format: ADME, organism-based, Macaca fascicularis; settings: in vivo
[7] = Ratio of drug uptake in pons to cerebellum in anesthetized cynomolgus monkey after 1.5 mins postinjection; format: ADME, organism-based, Macaca fascicularis; settings: in vivo, 0.025 h
[8] = Ratio of drug uptake in occipital lobe to cerebellum in anesthetized cynomolgus monkey after 115 mins postinjection; format: ADME, organism-based, Macaca fascicularis; settings: in vivo
Putamen [9] = test: Drug uptake in anesthetized cynomolgus monkey brain putamen after 175 mins postinjection; format: ADME, organism-based, Macaca fascicularis; settings: in vivo
Midbrain [10] = test: Drug uptake in anesthetized cynomolgus monkey brain midbrain after 225 mins postinjection; format: ADME, organism-based, Macaca fascicularis; settings: in vivo, 3.75 h
Pons [11] = test: Drug uptake in anesthetized cynomolgus monkey brain pons after 0.5 mins postinjection; format: ADME, organism-based, Macaca fascicularis; settings: in vivo
Pons [12] = test: Drug uptake in anesthetized cynomolgus monkey brain pons after 3.5 mins postinjection; format: ADME, organism-based, Macaca fascicularis; settings: in vivo
Pons [13] = test: Drug uptake in anesthetized cynomolgus monkey brain pons after 22.5 mins postinjection; format: ADME, organism-based, Macaca fascicularis; settings: in vivo, 0.375 h
Pons [14] = test: Drug uptake in anesthetized cynomolgus monkey brain pons after 55 mins postinjection; format: ADME, organism-based, Macaca fascicularis; settings: in vivo
Pons [15] = test: Drug uptake in anesthetized cynomolgus monkey brain pons after 185 mins postinjection; format: ADME, organism-based, Macaca fascicularis; settings: in vivo
[16] = Drug uptake in anesthetized cynomolgus monkey brain cerebellum after 205 mins postinjection; format: ADME, organism-based, Macaca fascicularis; settings: in vivo
[17] = Drug uptake in anesthetized cynomolgus monkey brain frontal lobe after 195 mins postinjection; format: ADME, organism-based, Macaca fascicularis; settings: in vivo, 3.25 h
Caudate [18] = test: Drug uptake in anesthetized cynomolgus monkey brain caudate after 205 mins postinjection; format: ADME, organism-based, Macaca fascicularis, Caudate nucleus; settings: in vivo
Putamen [19] = test: Drug uptake in anesthetized cynomolgus monkey brain putamen after 195 mins postinjection; format: ADME, organism-based, Macaca fascicularis; settings: in vivo, 3.25 h
Thalamus [20] = test: Drug uptake in anesthetized cynomolgus monkey brain thalamus after 185 mins postinjection; format: ADME, organism-based, Macaca fascicularis; settings: in vivo
[21] = Ratio of drug uptake in caudate to cerebellum in anesthetized cynomolgus monkey after 95 mins postinjection; format: ADME, organism-based, Macaca fascicularis; settings: in vivo
Pons [22] = test: Drug uptake in anesthetized cynomolgus monkey brain pons after 155 mins postinjection; format: ADME, organism-based, Macaca fascicularis; settings: in vivo
Pons [23] = test: Drug uptake in anesthetized cynomolgus monkey brain pons after 225 mins postinjection; format: ADME, organism-based, Macaca fascicularis; settings: in vivo, 3.75 h
Medulla [24] = test: Drug uptake in anesthetized cynomolgus monkey brain medulla after 4.5 mins postinjection; format: ADME, organism-based, Macaca fascicularis; settings: in vivo, 0.075 h
Medulla [25] = test: Drug uptake in anesthetized cynomolgus monkey brain medulla after 12.5 mins postinjection; format: ADME, organism-based, Macaca fascicularis; settings: in vivo
Medulla [26] = test: Drug uptake in anesthetized cynomolgus monkey brain medulla after 15.5 mins postinjection; format: ADME, organism-based, Macaca fascicularis; settings: in vivo
Medulla [27] = test: Drug uptake in anesthetized cynomolgus monkey brain medulla after 55 mins postinjection; format: ADME, organism-based, Macaca fascicularis; settings: in vivo
Medulla [28] = test: Drug uptake in anesthetized cynomolgus monkey brain medulla after 145 mins postinjection; format: ADME, organism-based, Macaca fascicularis; settings: in vivo
Medulla [29] = test: Drug uptake in anesthetized cynomolgus monkey brain medulla after 175 mins postinjection; format: ADME, organism-based, Macaca fascicularis; settings: in vivo
[30] = Drug uptake in anesthetized cynomolgus monkey brain cerebellum after 1.5 mins postinjection; format: ADME, organism-based, Macaca fascicularis; settings: in vivo, 0.025 h
[31] = Drug uptake in anesthetized cynomolgus monkey brain cerebellum after 12.5 mins postinjection; format: ADME, organism-based, Macaca fascicularis; settings: in vivo
[32] = Drug uptake in anesthetized cynomolgus monkey brain cerebellum after 175 mins postinjection; format: ADME, organism-based, Macaca fascicularis; settings: in vivo
Caudate [33] = test: Drug uptake in anesthetized cynomolgus monkey brain caudate after 1.5 mins postinjection; format: ADME, organism-based, Macaca fascicularis, Caudate nucleus; settings: in vivo, 0.025 h
Caudate [34] = test: Drug uptake in anesthetized cynomolgus monkey brain caudate after 4.5 mins postinjection; format: ADME, organism-based, Macaca fascicularis, Caudate nucleus; settings: in vivo, 0.075 h
Caudate [35] = test: Drug uptake in anesthetized cynomolgus monkey brain caudate after 9.5 mins postinjection; format: ADME, organism-based, Macaca fascicularis, Caudate nucleus; settings: in vivo
Caudate [36] = test: Drug uptake in anesthetized cynomolgus monkey brain caudate after 22.5 mins postinjection; format: ADME, organism-based, Macaca fascicularis, Caudate nucleus; settings: in vivo, 0.375 h
Caudate [37] = test: Drug uptake in anesthetized cynomolgus monkey brain caudate after 27.5 mins postinjection; format: ADME, organism-based, Macaca fascicularis, Caudate nucleus; settings: in vivo
Caudate [38] = test: Drug uptake in anesthetized cynomolgus monkey brain caudate after 55 mins postinjection; format: ADME, organism-based, Macaca fascicularis, Caudate nucleus; settings: in vivo
Caudate [39] = test: Drug uptake in anesthetized cynomolgus monkey brain caudate after 65 mins postinjection; format: ADME, organism-based, Macaca fascicularis, Caudate nucleus; settings: in vivo
Caudate [40] = test: Drug uptake in anesthetized cynomolgus monkey brain caudate after 125 mins postinjection; format: ADME, organism-based, Macaca fascicularis, Caudate nucleus; settings: in vivo
Caudate [41] = test: Drug uptake in anesthetized cynomolgus monkey brain caudate after 225 mins postinjection; format: ADME, organism-based, Macaca fascicularis, Caudate nucleus; settings: in vivo, 3.75 h
Putamen [42] = test: Drug uptake in anesthetized cynomolgus monkey brain putamen after 2.5 mins postinjection; format: ADME, organism-based, Macaca fascicularis; settings: in vivo
Thalamus [43] = test: Drug uptake in anesthetized cynomolgus monkey brain thalamus after 9.5 mins postinjection; format: ADME, organism-based, Macaca fascicularis; set-up: unit not given here; settings: in vivo
Thalamus [44] = test: Drug uptake in anesthetized cynomolgus monkey brain thalamus after 27.5 mins postinjection; format: ADME, organism-based, Macaca fascicularis; set-up: unit not given here; settings: in vivo
Thalamus [45] = test: Drug uptake in anesthetized cynomolgus monkey brain thalamus after 115 mins postinjection; format: ADME, organism-based, Macaca fascicularis; set-up: unit not given here; settings: in vivo
Midbrain [46] = test: Drug uptake in anesthetized cynomolgus monkey brain midbrain after 4.5 mins postinjection; format: ADME, organism-based, Macaca fascicularis; set-up: unit not given here; settings: in vivo, 0.075 h
Midbrain [47] = test: Drug uptake in anesthetized cynomolgus monkey brain midbrain after 12.5 mins postinjection; format: ADME, organism-based, Macaca fascicularis; set-up: unit not given here; settings: in vivo
Midbrain [48] = test: Drug uptake in anesthetized cynomolgus monkey brain midbrain after 85 mins postinjection; format: ADME, organism-based, Macaca fascicularis; set-up: unit not given here; settings: in vivo
[49] = Ratio of drug uptake in midbrain to cerebellum in anesthetized cynomolgus monkey after 135 mins postinjection; format: ADME, organism-based, Macaca fascicularis; settings: in vivo, 2.25 h

In the case of `O=C(OCC[18F])C1C2CCC(CC1c1ccc(/C=C\I)cc1)N2` (centres undefined), the Ratio [1] is reported as 1.4, the Drug uptake [2] is reported as 0.24 and the Drug uptake [3] is reported as 1.76. It also gave a Drug uptake [4] of 1.95, a Drug uptake [5] of 1.56 and a Ratio [6] of 4.4. For the same compound, the Ratio [7] was 0.6, the Ratio [8] was 1.3 and the Drug uptake (Putamen [9]) was 3.1. It also gave a Drug uptake (Midbrain [10]) of 4.51, a Drug uptake (Pons [11]) of 0 and a Drug uptake (Pons [12]) of 0.67. For the same compound, the Drug uptake (Pons [13]) was 2.4, the Drug uptake (Pons [14]) was 2.99 and the Drug uptake (Pons [15]) was 3.44. The Drug uptake [16] was 1.22, the Drug uptake [17] was 1.7 and the Drug uptake (Caudate [18]) was 2.77. For the same compound, the Drug uptake (Putamen [19]) was 4.01, the Drug uptake (Thalamus [20]) was 3.8 and the Ratio [21] was 1.4. For the same compound, the Drug uptake (Pons [22]) was 3.43, the Drug uptake (Pons [23]) was 3.34 and the Drug uptake (Medulla [24]) was 1.36. The Drug uptake (Medulla [25]) was 2.59, the Drug uptake (Medulla [26]) was 2.67 and the Drug uptake (Medulla [27]) was 3.78. The Drug uptake (Medulla [28]) was 3.61, the Drug uptake (Medulla [29]) was 3.52 and the Drug uptake [30] was 0.1. The Drug uptake [31] was 2.13, the Drug uptake [32] was 1.3 and the Drug uptake (Caudate [33]) was 0.07. It also gave a Drug uptake (Caudate [34]) of 0.78, a Drug uptake (Caudate [35]) of 1.47 and a Drug uptake (Caudate [36]) of 2.05. It also gave a Drug uptake (Caudate [37]) of 2.17, a Drug uptake (Caudate [38]) of 2.73 and a Drug uptake (Caudate [39]) of 2.87. For the same compound, the Drug uptake (Caudate [40]) was 3.09, the Drug uptake (Caudate [41]) was 2.68 and the Drug uptake (Putamen [42]) was 0.45. The Drug uptake (Thalamus [43]) was 2.06, the Drug uptake (Thalamus [44]) was 3.06 and the Drug uptake (Thalamus [45]) was 4.06. The Drug uptake (Midbrain [46]) was 1.23, the Drug uptake (Midbrain [47]) was 2.38 and the Drug uptake (Midbrain [48]) was 4.42. For the same compound, the Ratio [49] was 2.8.
